Experimental data taken from patent US11597703B2, “Caspase inhibitors and methods of use thereof” (Histogen Inc., priority 2019, dated 2023).

Tests used:
IL-1β = experiment: Inhibition of LPS-stimulated IL-1β in THP-1 cells (ELISA); assay type: cell-based, human; details: Homo sapiens, 10 micromolar, read-out: Percent Inhibition of IL1-β
Jurkat cells = experiment: Prevention of Fas-induced apoptosis in Jurkat cells (WST-8); assay type: cell-based; details: Homo sapiens, 10 micromolar, read-out: % Prevention of Fas - induced Jurkat cell apoptosis at 10 micromolar
IL 18 = experiment: Mouse in vivo model of peritoneal inflammation (LPS/ATP), IL 18 in peritoneal lavage fluid; set-up: species or system Mice; details: mouse peritonitis, IP injection
Procedure: Compounds of the present invention were tested in a mouse in vivo model of peritoneal inflammation (peritonitis). Mice were treated with intraperotonial injection of bacterial endotoxin, (LPS). After 1 hour, test compounds were administered by IP injection. After an additional hour, adenosine triphosphate (ATP) was administered by IP injection to further induce the production of the inflammatory cytokines, IL-1β and IL 18. After 0.5 hours, peritoneal lavage fluid was collected and analyzed for IL-1β and IL 18. An inhibitor of the NLRP 3 inflammasome, MCC950, was administered by IP injection and included as a reference test compound. […] IL18 levels were determined by a commercially available ELISA kit following the manufacture's instructions FIG. 3.

[1] = Rodent model of ulcerative colitis induced by TNBS; assay type: in vivo, Sprague-Dawley rats; details: for colon histology: Edema, Submucosal, Mean / colon histology: Erosion/ Ulceration, Mean / colon histology: Hyperplasia, Epithelial, Mean / colon histology: Necrosis, Mucosal/ Gland Loss, Mean / colon histology: SUM Score, Mean / colon histology: Subacute Inflammation, Mucosal/ Submucosal, Mean / colon histology: Subacute Inflammation, Transmural/ Serosal, Mean: DAY 7
Procedure: Compounds of the present invention were tested by oral administration in a rodent model of ulcerative colitis (UC). Ulcerative colitis was induced in Sprague-Dawley rats by instillation of 48 mg/kg […], (TNBS), through the rectum. Testing included 4 active treatment groups and one vehicle control group.
Effect of TNBS-Induced UC in Vehicle Treated Control Group, (Group 1):
Rats were administered of 0.5% vehicle carboxy methylcellulose, (CMC), twice daily starting 24 hours after the instillation of TNBS.
At the termination of the study on DAY 7, the average colon weight in the diseased rats was 5.904±2.208 g, the average colon length was 11.0±1.4 cm and the average distal colon width was 3.1±1.0 cm. Severe adhesions involving multiple intestinal loops, severe stricture resulting in proximal colon distension, ulcers of 6.4±0.4 cm in length, and colonic wall thickness of 3.5±0.8 mm combined to yield an overall colonic score of 11.5±0.8 in the diseased rats. […] Subacute inflammation (sub/mucosal and transmural/serosal were graded separately) was characterized by infiltration and aggregation of neutrophils, eosinophils, lymphocytes, plasma cells, and macrophages. Mucosal necrosis was characterized by damage to, necrosis of, or complete loss of colonic glands. Erosions were characterized by coagulative necrosis or loss of surface epithelium superficial to the muscularis mucosae. Submucosal edema was characterized by expansion of the submucosa by clear space or pale eosinophilic fluid, variably accompanied by dilation of lymphatic vessels and similar edematous expansion of the lamina propria. Epithelial hyperplasia was characterized by elongation of colonic glands and increased numbers of epithelial mitotic figures.

[2] = Group 3, 10 mg/kg/dose twice daily oral
[3] = Group 4, 30 mg/kg/dose twice daily oral
[4] = Group 5, 100 mg/kg/dose twice daily oral
[5] = all dose groups (10, 30, 100 mg/kg/dose twice daily oral)

C[C@H](NC(=O)C(=O)Nc1c(F)cccc1F)C(=O)N[C@@H](CCC(=O)O)C(=O)COc1c(F)c(F)cc(F)c1F [Example 6, (S)-4-((S)-2-(2-((2,6-Difluorophenyl)amino)-2-oxoacetamido)propanamido)-5-oxo-6-(2,3,5,6-tetrafluorophenoxy)hexanoic acid]
inhibition at 10 µM (IL-1β): > 90% | inhibition at 10 µM (Jurkat cells): ≤ 10% | inhibition of the in vivo production of IL 18 (IL 18): statistically significant inhibition | body weights, onset of significant improvement [1, 2]: significantly improved beginning on DAY 4 | colon histology: Edema, Submucosal, Mean [1, 2]: 3.2 | colon histology: Erosion/ Ulceration, Mean [1, 2]: 4.0 | colon histology: Hyperplasia, Epithelial, Mean [1, 2]: 3.4 | colon histology: Necrosis, Mucosal/ Gland Loss, Mean [1, 2]: 4.0 | colon histology: SUM Score, Mean [1, 2]: 19.3 | colon histology: Subacute Inflammation, Mucosal/ Submucosal, Mean [1, 2]: 4.3 | colon histology: Subacute Inflammation, Transmural/ Serosal, Mean [1, 2]: 3.9 | average animal weight, Mean ([1]; Group 3, 10 mpk twice daily oral, study day 0): 241 g | average animal weight, Mean ([1]; Group 3, 10 mpk twice daily oral, study day 1): 236 g | average animal weight, Mean ([1]; Group 3, 10 mpk twice daily oral, study day 2): 223 g | average animal weight, Mean ([1]; Group 3, 10 mpk twice daily oral, study day 3): 218 g | average animal weight, Mean ([1]; Group 3, 10 mpk twice daily oral, study day 4): 218 g | average animal weight, Mean ([1]; Group 3, 10 mpk twice daily oral, study day 5): 222 g | average animal weight, Mean ([1]; Group 3, 10 mpk twice daily oral, study day 6): 227 g | average animal weight, Mean ([1]; Group 3, 10 mpk twice daily oral, study day 7): 228 g | average animal weight, Mean ([1]; Group 3, 10 mpk twice daily oral, study day −1): 256 g | average animal weight, Mean ([1]; Group 3, 10 mpk twice daily oral, study day −5): 222 g | body weights, onset of significant improvement [1, 3]: statistically significantly improved body weights starting on DAY 5 | reduction in overall colonic score [1, 3]: 40% | colon histology: Edema, Submucosal, Mean [1, 3]: 2.6 | colon histology: Erosion/ Ulceration, Mean [1, 3]: 3.4 | colon histology: Hyperplasia, Epithelial, Mean [1, 3]: 3.1 | colon histology: Necrosis, Mucosal/ Gland Loss, Mean [1, 3]: 3.4 | colon histology: SUM Score, Mean [1, 3]: 17.6 | colon histology: Subacute Inflammation, Mucosal/ Submucosal, Mean [1, 3]: 3.9 | colon histology: Subacute Inflammation, Transmural/ Serosal, Mean [1, 3]: 3.2 | average animal weight, Mean ([1]; Group 4, 30 mpk twice daily oral, study day 0): 234 g | average animal weight, Mean ([1]; Group 4, 30 mpk twice daily oral, study day 1): 228 g | average animal weight, Mean ([1]; Group 4, 30 mpk twice daily oral, study day 2): 215 g | average animal weight, Mean ([1]; Group 4, 30 mpk twice daily oral, study day 3): 214 g | average animal weight, Mean ([1]; Group 4, 30 mpk twice daily oral, study day 4): 216 g | average animal weight, Mean ([1]; Group 4, 30 mpk twice daily oral, study day 5): 218 g | average animal weight, Mean ([1]; Group 4, 30 mpk twice daily oral, study day 6): 220 g | average animal weight, Mean ([1]; Group 4, 30 mpk twice daily oral, study day 7): 223 g | average animal weight, Mean ([1]; Group 4, 30 mpk twice daily oral, study day −1): 248 g | average animal weight, Mean ([1]; Group 4, 30 mpk twice daily oral, study day −5): 222 g | body weights, onset of significant improvement [1, 4]: statistically significantly improved body weights starting on DAY 5 | colon histology: Edema, Submucosal, Mean [1, 4]: 3.0 | colon histology: Erosion/ Ulceration, Mean [1, 4]: 3.6 | colon histology: Hyperplasia, Epithelial, Mean [1, 4]: 3.0 | colon histology: Necrosis, Mucosal/ Gland Loss, Mean [1, 4]: 3.6 | colon histology: SUM Score, Mean [1, 4]: 17.5 | colon histology: Subacute Inflammation, Mucosal/ Submucosal, Mean [1, 4]: 3.9 | colon histology: Subacute Inflammation, Transmural/ Serosal, Mean [1, 4]: 3.4 | average animal weight, Mean ([1]; Group 5, 100 mpk twice daily oral, study day 0): 232 g | average animal weight, Mean ([1]; Group 5, 100 mpk twice daily oral, study day 1): 231 g | average animal weight, Mean ([1]; Group 5, 100 mpk twice daily oral, study day 2): 219 g | average animal weight, Mean ([1]; Group 5, 100 mpk twice daily oral, study day 3): 213 g | average animal weight, Mean ([1]; Group 5, 100 mpk twice daily oral, study day 4): 217 g | average animal weight, Mean ([1]; Group 5, 100 mpk twice daily oral, study day 5): 220 g | average animal weight, Mean ([1]; Group 5, 100 mpk twice daily oral, study day 6): 222 g | average animal weight, Mean ([1]; Group 5, 100 mpk twice daily oral, study day 7): 225 g | average animal weight, Mean ([1]; Group 5, 100 mpk twice daily oral, study day −1): 246 g | average animal weight, Mean ([1]; Group 5, 100 mpk twice daily oral, study day −5): 222 g | SUM scores of colon histological parameters [1, 5]: statistically significant improvement | overall colonic score [1, 5]: statistically significant improvement
